{"source": "patent US20070249590A1", "about": "“Substituted indolo[2,3-a]pyrrolo[3,4-c]carbazole compounds useful in treating kinase disorders” (priority 2005, published 2007)", "data": [{"target": "T1, JAK3 (JH1 and JH2 domain) (Homo sapiens, UniProt P52333)", "T1 sequence (P52333 521-1111 limits assumed)": "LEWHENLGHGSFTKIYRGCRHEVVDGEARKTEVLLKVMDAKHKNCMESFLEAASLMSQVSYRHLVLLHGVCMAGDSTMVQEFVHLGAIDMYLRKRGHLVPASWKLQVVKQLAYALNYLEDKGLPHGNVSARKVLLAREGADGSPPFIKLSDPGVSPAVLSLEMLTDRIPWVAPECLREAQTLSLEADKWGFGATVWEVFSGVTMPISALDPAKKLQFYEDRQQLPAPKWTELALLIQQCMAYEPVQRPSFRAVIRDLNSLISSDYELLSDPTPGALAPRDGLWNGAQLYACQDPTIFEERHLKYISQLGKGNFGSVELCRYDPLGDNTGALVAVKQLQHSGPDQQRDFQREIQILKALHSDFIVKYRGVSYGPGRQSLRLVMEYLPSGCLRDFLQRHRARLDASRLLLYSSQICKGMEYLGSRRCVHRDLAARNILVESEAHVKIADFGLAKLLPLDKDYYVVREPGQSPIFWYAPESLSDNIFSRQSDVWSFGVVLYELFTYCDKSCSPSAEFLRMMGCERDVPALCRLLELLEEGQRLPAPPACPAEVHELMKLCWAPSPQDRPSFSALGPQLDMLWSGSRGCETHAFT", "assay": "JAK3 Kinase Assay (ELISA of peptide substrate phosphorylation)", "format": "biochemical", "settings": "purified JAK3 enzyme, 10 μM ATP, biotinylated peptide substrate, 1 hour at room temperature", "summary_of_the_method": "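Sf21-baculovirus-expressed JAK3 (JH1+JH2), glutathione-bead purified, with biotinylated peptide substrate (in buffer containing 10 μM ATP) in HEPES pH 7.5/MgCl2/DTT, 1 h RT. Product was captured on Neutravidin, detected with HRP anti-phosphotyrosine (PY99)/TMB, OD 450/650 nm. Triplicate 16-point half-log series from 200 μM gave IC50; otherwise % inhibition at 1 μM.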", "units": {"IC50": "nM"}, "values": [{"molecule": "O=C1NC(=O)c2c1c1c3ccccc3n3c1c1c2c2ccccc2n1CC(OC(=O)N1CCN(C(c2ccccc2)c2ccccc2)CC1)CC3", "note": "(stereo not shown) [Cpd 62, 12,13-{2-[(4-benzhydryl-piperazin-1-yl)carbonyloxy]-butan-1,4-yl}-12,13-dihydro-5,7-dioxo-6H-indolo[2,3-a]pyrrolo[3,4-c]carbazole]", "IC50": 496}, {"molecule": "O=C1NC(=O)c2c1c1c3ccccc3n3c1c1c2c2ccccc2n1CC(OC(=O)N1CCN(c2ccccn2)CC1)CC3", "note": "(stereo not shown) [Cpd 63, 12,13-{2-[(4-pyridin-2-yl-piperazin-1-yl)carbonyloxy]-butan-1,4-yl}-12,13-dihydro-5,7-dioxo-6H-indolo[2,3-a]pyrrolo[3,4-c]carbazole]", "IC50": 129}, {"molecule": "O=C1NC(=O)c2c1c1c3ccccc3n3c1c1c2c2ccccc2n1CC(OC(=O)N1CCN(c2ccccc2)CC1)CC3", "note": "(stereo not shown) [Cpd 64, 12,13-{2-[(4-phenyl-piperazin-1-yl)carbonyloxy]-butan-1,4-yl}-12,13-dihydro-5,7-dioxo-6H-indolo[2,3-a]pyrrolo[3,4-c]carbazole]", "IC50": 36}, {"molecule": "O=C1NC(=O)c2c1c1c3ccccc3n3c1c1c2c2ccccc2n1CC(OC(=O)N1CCN(CCc2ccccc2)CC1)CC3", "note": "(stereo not shown) [Cpd 65, 12,13-(2-{[4-(2-phenyl-ethyl)piperazin-1-yl]carbonyloxy}-butan-1,4-yl)-12,13-dihydro-5,7-dioxo-6H-indolo[2,3-a]pyrrolo[3,4-c]carbazole]", "IC50": 1000}, {"molecule": "O=C1NC(=O)c2c1c1c3ccccc3n3c1c1c2c2ccccc2n1CC(OC(=O)N1CCN(CCO)CC1)CC3", "note": "(stereo not shown) [Cpd 66, 12,13-(2-{[4-(2-hydroxy-ethyl)piperazin-1-yl]carbonyloxy}-butan-1,4-yl)-12,13-dihydro-5,7-dioxo-6H-indolo[2,3-a]pyrrolo[3,4-c]carbazole]", "IC50": 40}, {"molecule": "CN(C)CCN(C)C(=O)OC1CCn2c3ccccc3c3c4c(c5c6ccccc6n(c5c32)C1)C(=O)NC4=O", "note": "(stereo not shown) [Cpd 67, 12,13-(2-{[N-methyl-N-(2-dimethylamino-ethyl)]carbamoyloxy}-butan-1,4-yl)-12,13-dihydro-5,7-dioxo-6H-indolo[2,3-a]pyrrolo[3,4-c]carbazole]", "IC50": 247}, {"molecule": "CN(C)CCCN1CCN(C(=O)OC2CCn3c4ccccc4c4c5c(c6c7ccccc7n(c6c43)C2)C(=O)NC5=O)CC1", "note": "(stereo not shown) [Cpd 68, 12,13-(2-{[4-(3-dimethylamino-prop-1-yl)piperazin-1-yl]carbonyloxy}-butan-1,4-yl)-12,13-dihydro-5,7-dioxo-6H-indolo[2,3-a]pyrrolo[3,4-c]carbazole]", "IC50": 433}, {"molecule": "CN(C)CCN(Cc1ccccc1)C(=O)OC1Cn2c3ccccc3c3c4c(c5c6ccccc6n(c5c32)CC1O)C(=O)NC4=O", "note": "(stereo not shown) [Cpd 69, 12,13-(2-{[N-benzyl-N-(2-dimethylamino-ethyl)]carbamoyloxy}-3-hydroxy-butan-1,4-yl)-12,13-dihydro-5,7-dioxo-6H-indolo[2,3-a]pyrrolo[3,4-c]carbazole]", "IC50": 55}, {"molecule": "COc1ccccc1N1CCN(C(=O)OC2CCn3c4ccccc4c4c5c(c6c7ccccc7n(c6c43)C2)C(=O)NC5=O)CC1", "note": "(stereo not shown) [Cpd 70, 12,13-(2-{[4-(2-methoxy-phenyl)piperazin-1-yl]carbonyloxy}-butan-1,4-yl)-12,13-dihydro-5,7-dioxo-6H-indolo[2,3-a]pyrrolo[3,4-c]carbazole]", "IC50": 71}, {"molecule": "O=C1NC(=O)c2c1c1c3ccccc3n3c1c1c2c2ccccc2n1CC(OC(=O)N1CCOCC1)CC3", "note": "(stereo not shown) [Cpd 71, 12,13-[2-(morpholin-4-yl-carbonyloxy)-butan-1,4-yl]-12,13-dihydro-5,7-dioxo-6H-indolo[2,3-a]pyrrolo[3,4-c]carbazole]", "IC50": 38}, {"molecule": "O=C(NC1CCNC1)OC1CCn2c3ccccc3c3c4c(c5c6ccccc6n(c5c32)C1)C(=O)NC4=O", "note": "(stereo not shown) [Cpd 72, 12,13-[2-(pyrrolidin-3-yl-carbamoyloxy)-butan-1,4-yl]-12,13-dihydro-5,7-dioxo-6H-indolo[2,3-a]pyrrolo[3,4-c]carbazole]", "IC50": 12}, {"molecule": "CN(C)[C@H]1CCN(C(=O)OC2CCn3c4ccccc4c4c5c(c6c7ccccc7n(c6c43)C2)C(=O)NC5=O)C1", "note": "(stereo partly drawn) [Cpd 73, 12,13-(2-{[(3S)-3-dimethylamino-pyrrolidin-1-yl]carbonyloxy}-butan-1,4-yl)-12,13-dihydro-5,7-dioxo-6H-indolo[2,3-a]pyrrolo[3,4-c]carbazole]", "IC50": 42}, {"molecule": "CN(C)[C@@H]1CCN(C(=O)OC2CCn3c4ccccc4c4c5c(c6c7ccccc7n(c6c43)C2)C(=O)NC5=O)C1", "note": "(stereo partly drawn) [Cpd 74, 12,13-(2-{[(3R)-3-dimethylamino-pyrrolidin-1-yl]carbonyloxy}-butan-1,4-yl)-12,13-dihydro-5,7-dioxo-6H-indolo[2,3-a]pyrrolo[3,4-c]carbazole]", "IC50": 14}, {"molecule": "O=C(NC1CCNCC1)OC1CCn2c3ccccc3c3c4c(c5c6ccccc6n(c5c32)C1)C(=O)NC4=O", "note": "(stereo not shown) [Cpd 75, 12,13-[2-(piperidin-4-yl-carbamoyloxy)-butan-1,4-yl]-12,13-dihydro-5,7-dioxo-6H-indolo[2,3-a]pyrrolo[3,4-c]carbazole]", "IC50": 35}, {"molecule": "CN1CCN(C(=O)OC2Cn3c4ccccc4c4c5c(c6c7ccccc7n(c6c43)CC2O)C(=O)NC5=O)CC1", "note": "(stereo not shown) [Cpd 76, 12,13-{2-[(4-methyl-piperazin-1-yl)carbonyloxy]-3-hydroxy-butan-1,4-yl}-12,13-dihydro-5,7-dioxo-6H-indolo[2,3-a]pyrrolo[3,4-c]carbazole]", "IC50": 64}, {"molecule": "CN(C)CCNC(=O)OC1Cn2c3ccccc3c3c4c(c5c6ccccc6n(c5c32)CC1O)C(=O)NC4=O", "note": "(stereo not shown) [Cpd 77, 12,13-[2-[(2-dimethylamino-ethyl)carbamoyloxy]-3-hydroxy-butan-1,4-yl]-12,13-dihydro-5,7-dioxo-6H-indolo[2,3-a]pyrrolo[3,4-c]carbazole]", "IC50": 86}, {"molecule": "COc1ccccc1CNC(=O)OC1Cn2c3ccccc3c3c4c(c5c6ccccc6n(c5c32)CC1O)C(=O)NC4=O", "note": "(stereo not shown) [Cpd 78, 12,13-{2-[(2-methoxy-benzyl)carbamoyloxy]-3-hydroxy-butan-1,4-yl}-12,13-dihydro-5,7-dioxo-6H-indolo[2,3-a]pyrrolo[3,4-c]carbazole]", "IC50": 179}, {"molecule": "O=C(NCCCN1CCCC1=O)OC1Cn2c3ccccc3c3c4c(c5c6ccccc6n(c5c32)CC1O)C(=O)NC4=O", "note": "(stereo not shown) [Cpd 79, 12,13-(2-{[3-(2-oxo-pyrrolidin-1-yl)prop-1-yl]carbamoyloxy}-3-hydroxy-butan-1,4-yl)-12,13-dihydro-5,7-dioxo-6H-indolo[2,3-a]pyrrolo[3,4-c]carbazole]", "IC50": 48}, {"molecule": "O=C(NCc1ccc2c(c1)OCO2)OC1Cn2c3ccccc3c3c4c(c5c6ccccc6n(c5c32)CC1O)C(=O)NC4=O", "note": "(stereo not shown) [Cpd 80, 12,13-{2-[(benzo[1,3]dioxol-5-yl-methyl)carbamoyloxy]-3-hydroxy-butan-1,4-yl}-12,13-dihydro-5,7-dioxo-6H-indolo[2,3-a]pyrrolo[3,4-c]carbazole]", "IC50": 100}, {"molecule": "O=C(NCC1CCCCC1)OC1Cn2c3ccccc3c3c4c(c5c6ccccc6n(c5c32)CC1O)C(=O)NC4=O", "note": "(stereo not shown) [Cpd 81, 12,13-{2-[(cyclohexyl-methyl)carbamoyloxy]-3-hydroxy-butan-1,4-yl}-12,13-dihydro-5,7-dioxo-6H-indolo[2,3-a]pyrrolo[3,4-c]carbazole]", "IC50": 434}, {"molecule": "O=C(NCCc1ccccn1)OC1Cn2c3ccccc3c3c4c(c5c6ccccc6n(c5c32)CC1O)C(=O)NC4=O", "note": "(stereo not shown) [Cpd 82, 12,13-{2-[(2-pyridin-2-yl-ethyl)carbamoyloxy]-3-hydroxy-butan-1,4-yl}-12,13-dihydro-5,7-dioxo-6H-indolo[2,3-a]pyrrolo[3,4-c]carbozole]", "IC50": 134}, {"molecule": "COCCNC(=O)OC1Cn2c3ccccc3c3c4c(c5c6ccccc6n(c5c32)CC1O)C(=O)NC4=O", "note": "(stereo not shown) [Cpd 83, 12,13-{2-[(2-methoxy-ethyl)carbamoyloxy]-3-hydroxy-butan-1,4-yl}-12,13-dihydro-5,7-dioxo-6H-indolo[2,3-a]pyrrolo[3,4-c]carbazole]", "IC50": 29}, {"molecule": "COc1ccc(CCNC(=O)OC2Cn3c4ccccc4c4c5c(c6c7ccccc7n(c6c43)CC2O)C(=O)NC5=O)cc1OC", "note": "(stereo not shown) [Cpd 84, 12,13-(2-{[2-(3,4-dimethoxy-phenyl)ethyl]carbamoyloxy}-3-hydroxy-butan-1,4-yl)-12,13-dihydro-5,7-dioxo-6H-indolo[2,3-a]pyrrolo[3,4-c]carbazole]", "IC50": 187}, {"molecule": "CC(C)NC(=O)OC1Cn2c3ccccc3c3c4c(c5c6ccccc6n(c5c32)CC1O)C(=O)NC4=O", "note": "(stereo not shown) [Cpd 85, 12,13-[2-(prop-2-yl-carbamoyloxy)-3-hydroxy-butan-1,4-yl]-12,13-dihydro-5,7-dioxo-6H-indolo[2,3-a]pyrrolo[3,4-c]carbazole]", "IC50": 14}, {"molecule": "Cc1ccc(CNC(=O)OC2Cn3c4ccccc4c4c5c(c6c7ccccc7n(c6c43)CC2O)C(=O)NC5=O)o1", "note": "(stereo not shown) [Cpd 86, 12,13-(2-{[(5-methyl-furan-2-yl)methyl]carbamoyloxy}-3-hydroxy-butan-1,4-yl)-12,13-dihydro-5,7-dioxo-6H-indolo[2,3-a]pyrrolo[3,4-c]carbazole]", "IC50": 33}]}]}
